From US20240199649A1 (Biosplice Therapeutics, Inc., priority 2022, published 2024) come the findings set out here.

For the assay, the target named is recombinant DYRK1A kinase (Homo sapiens (Human), UniProt Q13627). Put plainly: DYRK1A kinase assay (Ser/Thr 18 peptide Z-lyte FRET assay). It is filed as biochemical. The following applies: DYRK1A 0.25 μg/mL, ATP 15 μM, Ser/Thr peptide 18 4 μM; one hour at room temperature; 11-point dose-response, duplicate. A digest of the protocol: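 Z-lyte FRET assay on Ser/Thr 18 peptide, kinase activity read as coumarin/fluorescein emission ratio; compounds incubated 1 h at room temperature, then development reagent 1 h, in duplicate. Phosphorylated and unphosphorylated peptide served as controls; IC50 by non-linear regression of dose-response curves.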
Broadly, the IC50 is the concentration needed to halve the response being measured. Consider `CNc1nc(N[C@H]2CCN(C3CC3)C[C@H]2F)nn2ccc(-c3ccc4nc(C)n(CC(F)F)c4n3)c12` [Compound 378, N^2-((3R,4S)-1-Cyclopropyl-3-fluoropiperidin-4-yl)-5-(3-(2,2-difluoroethyl)-2-methyl-3H-imidazo[4,5-b]pyridin-5-yl)-N^4-methylpyrrolo[2,1-f][1,2,4]triazine-2,4-diamine], for which the IC50 is 4.1 nM. Regarding `CNc1nc(N[C@H]2CN(C)CC2(F)F)nn2ccc(-c3ccc4nc(C)n(CC(F)F)c4n3)c12` [Compound 363, (S)—N^2-(4,4-Difluoro-1-methylpyrrolidin-3-yl)-5-(3-(2,2-difluoroethyl)-2-methyl-3H-imidazo[4,5-b]pyridin-5-yl)-N^4-methylpyrrolo[2,1-f][1,2,4]triazine-2,4-diamine], the IC50 came out at 2.1 nM.

With `CNc1nc(NC2CCC(F)(F)CC2)nn2ccc(-c3ccc4ncn(CC(F)F)c4n3)c12` [Compound 1007, N^2-(4,4-Difluorocyclohexyl)-5-(3-(2,2-difluoroethyl)-3H-imidazo[4,5-b]pyridin-5-yl)-N^4-methylpyrrolo[2,1-f][1,2,4]triazine-2,4-diamine], the IC50 stood at 4.1 nM. `CNc1nc(N[C@H]2C[C@@](C)(O)C2)nn2ccc(-c3ccc4nc(C)n(CC(F)F)c4n3)c12` [Compound 174, Cis-3-((5-(3-(2,2-Difluoroethyl)-2-methyl-3H-imidazo[4,5-b]pyridin-5-yl)-4-(methylamino)pyrrolo[2,1-f][1,2,4]triazin-2-yl)amino)-1-methylcyclobutan-1-ol]: the IC50 is 1.7 nM. For `Nc1nc(N[C@@H]2CCN(C3COC3)CC2(F)F)nn2ccc(-c3ccc4ncn(CC(F)F)c4n3)c12` [Compound 993, (R)—N^2-(3,3-Difluoro-1-(oxetan-3-yl)piperidin-4-yl)-5-(3-(2,2-difluoroethyl)-3H-imidazo[4,5-b]pyridin-5-yl)pyrrolo[2,1-f][1,2,4]triazine-2,4-diamine] the value was 0.6 nM. For `Cc1nc2ccc(-c3ccn4nc(N[C@@H]5CCN(C6COC6)CC5(F)F)nc(N)c34)nc2n1CC(F)F` [Compound 730, (R)—N^2-(3,3-Difluoro-1-(oxetan-3-yl)piperidin-4-yl)-5-(3-(2,2-difluoroethyl)-2-methyl-3H-imidazo[4,5-b]pyridin-5-yl)pyrrolo[2,1-f][1,2,4]triazine-2,4-diamine] the value was 2.1 nM; for `CNc1nc(N[C@H]2CC[C@@](C)(O)CC2)nn2ccc(-c3ccc4nc(C)n(CC(F)F)c4n3)c12` [Compound 188, Cis-4-((5-(3-(2,2-Difluoroethyl)-2-methyl-3H-imidazo[4,5-b]pyridin-5-yl)-4-(methylamino)pyrrolo[2,1-f][1,2,4]triazin-2-yl)amino)-1-methylcyclohexan-1-ol], 2.2 nM; for `CCN1CC[C@H](Nc2nc(NC)c3c(-c4ccc5nc(C)n(CC(F)F)c5n4)ccn3n2)[C@H](F)C1` [Compound 373, 5-(3-(2,2-Difluoroethyl)-2-methyl-3H-imidazo[4,5-b]pyridin-5-yl)-N^2-((3R,4S)-1-ethyl-3-fluoropiperidin-4-yl)-N^4-methylpyrrolo[2,1-f][1,2,4]triazine-2,4-diamine], 3.8 nM. As to `Cc1nc2ccc(-c3ccn4nc(N[C@H]5CC[C@](C)(O)CC5)nc(N)c34)nc2n1CC(F)(F)F` [Compound 754, (1r,4r)-4-((4-Amino-5-(2-methyl-3-(2,2,2-trifluoroethyl)-3H-imidazo[4,5-b]pyridin-5-yl)pyrrolo[2,1-f][1,2,4]triazin-2-yl)amino)-1-methylcyclohexan-1-ol], the IC50 amounted to 0.5 nM.

On to `CNc1nc(N[C@@H]2CCNCC2(F)F)nn2ccc(-c3ccn4nccc4n3)c12` [Compound 339, (R)—N^2-(3,3-Difluoropiperidin-4-yl)-N^4-methyl-5-(pyrazolo[1,5-a]pyrimidin-5-yl)pyrrolo[2,1-f][1,2,4]triazine-2,4-diamine], for which the IC50 came out at 2.2 nM. In the case of `CNc1nc(NC2CCN(CCF)CC2)nn2ccc(-c3ccc4nc(C)n(CC(F)F)c4n3)c12` [Compound 369, 5-(3-(2,2-Difluoroethyl)-2-methyl-3H-imidazo[4,5-b]pyridin-5-yl)-N^2-(1-(2-fluoroethyl)piperidin-4-yl)-N^4-methylpyrrolo[2,1-f][1,2,4]triazine-2,4-diamine], the IC50 was found to be 2.9 nM. On to `CNc1nc(N[C@H]2CCN(C3COC3)C[C@H]2F)nn2ccc(-c3ccc4ncn(CCF)c4n3)c12` [Compound 1003, N^2-((3R,4S)-3-Fluoro-1-(oxetan-3-yl)piperidin-4-yl)-5-(3-(2-fluoroethyl)-3H-imidazo[4,5-b]pyridin-5-yl)-N4-methylpyrrolo[2,1-f][1,2,4]triazine-2,4-diamine], for which the IC50 came to 1.1 nM. As for `CNc1nc(N[C@H]2CC[C@](C)(O)CC2)nn2ccc(-c3ccc4nc(C)n(CC(F)F)c4n3)c12` [Compound 189, trans-4-((5-(3-(2,2-Difluoroethyl)-2-methyl-3H-imidazo[4,5-b]pyridin-5-yl)-4-(methylamino)pyrrolo[2,1-f][1,2,4]triazin-2-yl)amino)-1-methylcyclohexan-1-ol], the figure is 1.3 nM. Regarding `Cc1nc2ccc(-c3ccn4nc(N[C@@H]5CN(C6COC6)C[C@@H]5F)nc(N)c34)nc2n1CC(F)F` [Compound 701, 5-(3-(2,2-Difluoroethyl)-2-methyl-3H-imidazo[4,5-b]pyridin-5-yl)-N^2-((3R,4S)-4-fluoro-1-(oxetan-3-yl)pyrrolidin-3-yl)pyrrolo[2,1-f][1,2,4]triazine-2,4-diamine], the IC50 came out at 1 nM. In the case of `CNc1nc(N[C@@H]2CCN(C(C)=O)CC2(F)F)nn2ccc(-c3ccc4ncn(CC(F)F)c4n3)c12` [Compound 1010, (R)-1-(4-((5-(3-(2,2-Difluoroethyl)-3H-imidazo[4,5-b]pyridin-5-yl)-4-(methylamino)pyrrolo[2,1-f][1,2,4]triazin-2-yl)amino)-3,3-difluoropiperidin-1-yl)ethan-1-one], the half-maximal inhibitory concentration (IC50) was found to be 0.5 nM. Take `CNc1nc(N[C@H]2CCN(C(C)=O)C[C@H]2F)nn2ccc(-c3ccc4ncn(CC(F)F)c4n3)c12` [Compound 1012, 1-((3R,4S)-4-((5-(3-(2,2-Difluoroethyl)-3H-imidazo[4,5-b]pyridin-5-yl)-4-(methylamino)pyrrolo[2,1-f][1,2,4]triazin-2-yl)amino)-3-fluoropiperidin-1-yl)ethan-1-one]: the IC50 was 0.5 nM.
